Measurements published in patent US4518581A, “Imparting low- or anti-cariogenic property to orally-usable products” (Kabushiki Kaisha Hayashibara Seibutsu Kagaku Kenkyujo, priority 1981, dated 1985).

Tests used:
[1] = test system: Streptococcus mutans 6715 strain; assay: Organic acid formation from saccharides by Streptococcus mutans cells, pH-measurement (Experiment 4); assay type: cell-based; details: 37° C., 30 minutes; for organic acid formation from the saccharide: Streptococcus mutans 6715 cells; for pH-Level of the reaction mixture (organic acid formation): cell suspension, Stephan's buffer (pH 7.0), saccharide solution
Method: Organic acid formation from some saccharides by Streptococcus mutans was tested: Streptococcus mutans 6715 strain was cultivaed similarly as in EXPERIMENT 1, and the cells, obtained by centrifuging the culture, were washed with 0.9 w/v % sodium chloride solution, followed by additional centrifugation. Two ml of a mixture solution, consisting of 0.2 ml of the cell suspension, prepared from about 100 ml of the culture, 1.5 ml of Stephan's buffer, and 0.3 ml aqueous solution of each saccharide as listed in TABLE II, was incubated at 37° C. for 30 minutes, followed by pH-measurement of the reaction mixture. The Stephan's buffer was prepared by the method as reported by R. M. Stephan et al., Journal of Dental Research, Vol.26, pp.15-41 (1947): One ml of Solution I, prepared by dissolving 17.89 g Na2 HPO4. 12H2 O, 7.92 g KOH and 6.81 g KH2 PO4 in water to give a final volume of 100 ml, was placed in a 100-ml volumetric flask, and mixed with about 90 ml of water. To the flask was added 1 ml of Solution II, prepared by dissolving 4.54 g KH2 PO4, 0.32 g MgSO4.7H2 O, 0.57 g CaSO4.2H2 O and 10 ml of 3.5% hydrochloric acid solution in water to give a final volume of 100 ml. This mixture was diluted with additional water to obtain 100 ml of Stephan's buffer (pH 7.0).
The results are given in TABLE II, wherein the organic acid formation from the saccharides can be estimated by the pH-values.

[2] = biological target: T1, water-insoluble glucan producing enzyme (Streptococcus downei, UniProt P27470); assay: Effect of saccharides on formation of water-insoluble glucan from sucrose (Experiment 3); assay type: biochemical, Streptococcus mutans 6715 strain; details: saccharide reduced to 10% against sucrose: 1 ml 4 w/v % sucrose plus 1 ml 0.4 w/v % saccharide, 37° C., 16 hours
T1 construct: to the supernatant was added with ammonium sulfate to give 60% saturation; endogenous in cells; host or cells: Streptococcus mutans 6715 strain (today S. sobrinus), culture supernatant, ammonium sulfate precipitate, dialyzed
T1 sequence (P27470 39-1592): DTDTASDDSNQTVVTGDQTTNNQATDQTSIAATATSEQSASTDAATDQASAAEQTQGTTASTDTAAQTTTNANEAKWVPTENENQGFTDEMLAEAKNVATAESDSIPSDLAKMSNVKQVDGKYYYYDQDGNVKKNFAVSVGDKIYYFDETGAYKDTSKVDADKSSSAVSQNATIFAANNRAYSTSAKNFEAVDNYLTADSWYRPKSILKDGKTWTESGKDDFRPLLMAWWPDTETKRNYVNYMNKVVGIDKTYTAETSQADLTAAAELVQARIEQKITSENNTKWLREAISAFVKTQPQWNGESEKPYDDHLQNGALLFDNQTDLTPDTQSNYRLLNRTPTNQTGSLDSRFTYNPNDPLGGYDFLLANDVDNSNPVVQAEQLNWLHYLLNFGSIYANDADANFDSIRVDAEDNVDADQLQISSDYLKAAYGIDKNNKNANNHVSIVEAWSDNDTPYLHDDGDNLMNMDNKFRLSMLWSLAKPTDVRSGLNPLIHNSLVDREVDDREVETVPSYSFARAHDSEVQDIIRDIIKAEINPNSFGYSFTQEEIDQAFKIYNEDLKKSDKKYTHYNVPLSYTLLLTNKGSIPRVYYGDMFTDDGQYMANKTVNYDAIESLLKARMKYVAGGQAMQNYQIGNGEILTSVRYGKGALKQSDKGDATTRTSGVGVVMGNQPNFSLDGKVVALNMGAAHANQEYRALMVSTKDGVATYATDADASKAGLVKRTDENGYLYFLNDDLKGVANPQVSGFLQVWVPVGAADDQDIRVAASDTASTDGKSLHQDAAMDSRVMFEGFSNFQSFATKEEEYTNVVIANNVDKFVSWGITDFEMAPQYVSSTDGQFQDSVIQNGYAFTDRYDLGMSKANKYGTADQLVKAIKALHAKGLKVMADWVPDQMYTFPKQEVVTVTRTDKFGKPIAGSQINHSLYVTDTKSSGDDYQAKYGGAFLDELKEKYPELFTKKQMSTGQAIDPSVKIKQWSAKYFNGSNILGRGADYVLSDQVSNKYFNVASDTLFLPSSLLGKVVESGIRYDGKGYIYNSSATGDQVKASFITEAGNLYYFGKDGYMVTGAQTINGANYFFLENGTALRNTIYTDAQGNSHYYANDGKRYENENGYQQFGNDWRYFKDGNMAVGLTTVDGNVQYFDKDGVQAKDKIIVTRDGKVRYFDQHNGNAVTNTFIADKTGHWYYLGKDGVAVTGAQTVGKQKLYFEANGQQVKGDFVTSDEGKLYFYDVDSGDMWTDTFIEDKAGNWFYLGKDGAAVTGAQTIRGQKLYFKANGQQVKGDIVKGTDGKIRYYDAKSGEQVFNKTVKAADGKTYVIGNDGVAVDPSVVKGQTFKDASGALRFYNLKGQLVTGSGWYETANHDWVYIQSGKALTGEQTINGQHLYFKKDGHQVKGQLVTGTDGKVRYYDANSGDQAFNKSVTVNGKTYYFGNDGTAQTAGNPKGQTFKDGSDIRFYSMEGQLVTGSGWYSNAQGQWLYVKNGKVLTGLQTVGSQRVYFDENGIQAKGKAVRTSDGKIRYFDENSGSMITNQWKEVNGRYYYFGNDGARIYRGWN

[3] = biological target: T1, water-insoluble glucan producing enzyme; assay: as above; assay type: biochemical, Streptococcus mutans 6715 strain; details: 1 ml 4 w/v % sucrose plus 1 ml 4 w/v % saccharide, 0.02 units enzyme, 37° C., 16 hours; for A: amounts of water-insoluble glucan formed: sucrose control 300
Method: After completion of the cultivation, the culture was separated into cell precipitant and supernatant. Thereafter, to the supernatant was added with ammonium sulfate to give 60% saturation, and the resultant precipitant was dialyzed against 0.1M phosphate buffer (pH 7.2) to obtain an aqueous solution containing the enzyme.
The titers of the enzyme were assayed as follows: A mixture solution, consisting of 1 ml of 0.2M aqueous sucrose solution, 1 ml of water, 1 ml of 0.1M phosphate buffer containing 0.05 w/v % NaN3, and 0.5 ml of the enzyme solution (below 0.05 units), is incubated at 37° C. for 9 hours, followed by centrifugation of the reaction mixture. The resultant precipitant is mixed with 4 ml of 0.5N sodium hydroxide solution, and then incubated at this temperature for an additional one hour to dissolve the precipitant. The amount of water-insoluble glucan formed during the enzymatic reaction is then measured. One unit of the enzyme is defined as the amount of enzyme that transfers 1 μmole glucose from sucrose to the water-insoluble glucan in one minute.
Effects of some saccharides on the formation of water-insoluble glucan were tested: Water-insoluble glucan formation and inhibition thereof were determined according to the enzyme assay method as described in EXPERIMENT 1, except that the mixture solution contained sucrose, or sucrose and each saccharide as listed in TABLE I. The experiment was carried out as follows: A mixture solution, consisting of 1 ml of 4 w/v % aqueous sucrose solution, 1 ml of 4 w/v % aqueous solution of each saccharide as listed in TABLE I, 1.5 ml of 0.1M phosphate buffer containing 0.05 w/v % NaN3, and 0.5 ml of the enzyme solution (0.02 units), was incubated at 37° C. for 16 hours, and the water-insoluble glucan formation in the reaction mixture was determined according to the enzyme assy method.
In a control experiment, 1 ml of the above described saccharide solution was replaced with the same amount of water.
The inhibition degree was calculated with following equation:
Inhibition degree (%)=100-A/B×100
where A and B are respective amounts of the water-insoluble glucan formed (μg/ml) when the mixture solution contained sucrose or sucrose and each of the saccharides.

Compound	organic acid formation from the saccharide [1]	pH-Level of the reaction mixture (organic acid formation) [1]	C: inhibition degree of water-insoluble glucan formation [2]	C: inhibition degree of water-insoluble glucan formation ([2]; listed as isomaltotriose)	A: amounts of water-insoluble glucan formed [3]	C: inhibition degree of water-insoluble glucan formation ([2]; listed as isomaltosyl maltose)	C: inhibition degree of water-insoluble glucan formation ([2]; listed as panose)	C: inhibition degree of water-insoluble glucan formation ([2]; listed as isomaltopentaose)	C: inhibition degree of water-insoluble glucan formation ([2]; listed as isomaltotetraose)	B: inhibition degree on water-insoluble glucan formation [3]
OC[C@H]1O[C@H](OC[C@H]2O[C@H](OC[C@H]3OC(O)[C@H](O)[C@@H](O)[C@@H]3O)[C@H](O)[C@@H](O)[C@@H]2O)[C@H](O)[C@@H](O)[C@@H]1O (stereo partly shown) [Isomaltotriose]	no organic acid formation	7.0	49%	45-60%	36 µg/mL					
OC[C@H]1O[C@H](OC[C@H]2O[C@H](O[C@H]3[C@H](O)[C@@H](O)[C@@H](O[C@H]4[C@H](O)[C@@H](O)C(O)O[C@@H]4CO)O[C@@H]3CO)[C@H](O)[C@@H](O)[C@@H]2O)[C@H](O)[C@@H](O)[C@@H]1O (stereo partly drawn) [Isomaltosyl maltose, 4^2 -O-α-isomaltosyl maltose]	no organic acid formation	7.0	55%		24 µg/mL	45-60%				
OC[C@H]1O[C@H](OC[C@H]2O[C@H](O[C@H]3[C@H](O)[C@@H](O)C(O)O[C@@H]3CO)[C@H](O)[C@@H](O)[C@@H]2O)[C@H](O)[C@@H](O)[C@@H]1O (stereo partly drawn) [Panose, 4-O-α-isomaltosyl glucose]	no organic acid formation	7.0	47%		48 µg/mL		45-60%			
OC[C@H]1O[C@H](OC[C@H]2O[C@H](OC[C@H]3O[C@H](OC[C@H]4O[C@H](OC[C@H]5OC(O)[C@H](O)[C@@H](O)[C@@H]5O)[C@H](O)[C@@H](O)[C@@H]4O)[C@H](O)[C@@H](O)[C@@H]3O)[C@H](O)[C@@H](O)[C@@H]2O)[C@H](O)[C@@H](O)[C@@H]1O (stereo partly drawn) [Isomaltopentaose, 6^3 -O-α-isomaltosyl isomaltotriose]	no organic acid formation	7.0	60%		15 µg/mL			45-60%		
OC[C@H]1O[C@H](OC[C@H]2O[C@H](OC[C@H]3O[C@H](OC[C@H]4OC(O)[C@H](O)[C@@H](O)[C@@H]4O)[C@H](O)[C@@H](O)[C@@H]3O)[C@H](O)[C@@H](O)[C@@H]2O)[C@H](O)[C@@H](O)[C@@H]1O (stereo partly drawn) [Isomaltotetraose, 6^2 -O-α-isomaltosyl isomaltose]	no organic acid formation	7.0	58%		18 µg/mL				45-60%	
OC[C@H]1O[C@@](CO)(OC[C@H]2O[C@](O)(CO)[C@@H](O)[C@@H]2O)[C@@H](O)[C@@H]1O [Levanbiose]		6.5			288 µg/mL					4%
